Key:
Aβ1-42 = assay: Measurement of Aβ1-42 in culture medium of 7W WT APP751 CHO cells by ELISA; assay type: cell-based, Chinese hamster; settings: for activity at 5 µM: Cricetulus griseus, Table 1, 5 μM test compound, CHO cells stably transfected with human APP751, culture medium, ELISA, control DMSO, 0 = no detectable amount, read-out: Aβ1-42 (% of control); for Aβ1-42 (% of control): CHO cells that overexpress APP751, zero = below the detection limit of the assay
Method: (§1) Chinese hamster ovary (CHO) cells, stably transfected with human APP751 (7W WT APP751 CHO cells) were used. See, e.g., Koo and Squazzo, J. Biol. Chem., 269(26): 17386-17389, 1994. The cells were maintained in DMEM medium supplemented with 10% fetal bovine serum and 1× mixture of penicillin/streptomycin/fungizone/glutamine mixture (Cambrex, Md.) geneticin as selecting agent in 75 cm^2 cell culture flasks. The 7W WT APP751 CHO cells were plated in 96-well cell culture plates in quadruplicate, containing 200 microliters of culture medium, for 18 hours at 37° C. and 5% CO2. All test compounds were placed in dimethyl sulfoxide (DMSO) before being added to the cultured confluent 7W WT APP751 CHO cells to a concentration of the test compound of 5 μM. The culture medium was collected and diluted before being assayed by ELISAs for Aβ1-40 at 10-fold dilution and Aβ1-42 at 2-fold dilution, respectively. Concentrations of Aβ1-40 and Aβ1-42, expressed in pg/ml, were determined using commercially available ELISAs (Biosource, Calif.) in a colorimetric assay using labeled antibodies detected spectrophotometrically. For compounds with an identification beginning “RI”, the compounds were tested at a concentration of 10 μM for 24 hours. Control cells were treated with DMSO containing no compound. The percentage reduction in levels of Aβ1-40 and Aβ1-42 as compared to control cells not exposed to the test compounds are reported for the compounds in Tables 1, 2, and 3, supra. An entry of “0” indicates no detectable amount of Aβ1-40 or Aβ1-42 according to the assay conditions. The data in Tables 1, 2, and 3 may be rounded to the nearest 0.1%.

Aβ1-40 = assay: Measurement of Aβ1-40 in culture medium of 7W WT APP751 CHO cells by ELISA; assay type: cell-based, Chinese hamster; settings: for activity at 5 µM: Cricetulus griseus, Table 1, 5 μM test compound, CHO cells stably transfected with human APP751, culture medium, ELISA, control DMSO, 0 = no detectable amount; for Aβ1-40 (% of control): CHO cells that overexpress APP751, zero = below the detection limit of the assay
Method: as §1
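Further: 5 µM test compound but RI-coded compounds at 10 µM for 24 hours.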

Structure (SMILES) | activity at 5 µM (Aβ1-42) | activity at 5 µM (Aβ1-40) | Aβ1-42 (% of control) (Aβ1-42) | Aβ1-40 (% of control) (Aβ1-40)
COc1ccc(COC(=O)C2=C(C)NC3=C(C(=O)CC(C)(C)C3)C2c2ccc(O)c(OC)c2)cc1 (stereo not shown) [ST017025, (4-methoxyphenyl)methyl 4-(4-hydroxy-3-methoxyphenyl)-2,7,7-trimethyl-5-oxo-1,4,6,7,8-pentahydroquinoline-3-carboxylate] | 32.2% | 30.1% |  | 
CC1=C(C(=O)OCC(C)C)C(c2cc([N+](=O)[O-])ccc2Cl)C2=C(CCCC2=O)N1 (stereo not shown) [ST052351, 2-methylpropyl 4-(2-chloro-5-nitrophenyl)-2-methyl-5-oxo-1,4,6,7,8-pentahydroquinoline-3-carboxylate] | 20.3% | 19.3% |  | 
CCN(CC)c1ccc(C2C(C(=O)OC)=C(C)NC3=C2C(=O)CC(c2ccccc2)C3)cc1 (stereo not shown) [ST013129, methyl 4-[4-(diethylamino)phenyl]-2-methyl-5-oxo-7-phenyl-1,4,6,7,8-pentahydroquinoline-3-carboxylate] | 90.6% | 64.3% |  | 
COc1ccc(CCNC(=O)CSC2=C(C#N)C(c3cccs3)C(C(=O)Nc3ccccc3)=C(C)N2)cc1OC (stereo not shown) [RI_15] |  |  | 41.2 % of control | 74.9 % of control
CC1=C(C(=O)Nc2ccccc2C)C(c2ccco2)C(C#N)=C(SCC(=O)Nc2cccc(Cl)c2C)N1 (stereo not shown) [ST051156, N-(3-chloro-2-methylphenyl)-2-{3-cyano-4-(2-furyl)-6-methyl-5-[N-(2-methylphenyl)carbamoyl](2-1,4-dihydropyridylthio)}acetamide] |  |  | 68.02 % of control | 86.64 % of control
CC1=C(C(=O)Nc2ccccc2)C(c2ccsc2)C(C#N)=C(SCC(=O)N2CCCCCCCCCCC2)N1 (stereo not shown) [RI_33] |  |  | 13.7 % of control | 11.9 % of control
COC(=O)C1=CN(C2CC2)C=C(C(=O)OC)C1c1cccc(F)c1 [ST038735, methyl 1-cyclopropyl-4-(3-fluorophenyl)-5-(methoxycarbonyl)-1,4-dihydropyridine-3-carboxylate] |  |  | 98.52 % of control | 65.36 % of control
COc1ccc(COC(=O)C2=C(C)NC3=C(C(=O)CCC3)C2c2cccc(C)c2)cc1 (stereo not shown) [ST052354, (4-methoxyphenyl)methyl 2-methyl-4-(3-methylphenyl)-5-oxo-1,4,6,7,8-pentahydroquinoline-3-carboxylate] | 57.2% | 95.1% |  | 
COC(=O)C1=C(C)NC2=C(C(=O)CCC2)C1c1cc(OC)ccc1OC (stereo not shown) [ST013073, methyl 4-(2,5-dimethoxyphenyl)-2-methyl-5-oxo-1,4,6,7,8-pentahydroquinoline-3-carboxylate] | 93.2% | 49.5% |  | 
CC1=C(C(=O)Nc2ccccc2)C(c2ccsc2)C(C#N)=C(SCC(=O)Nc2ccc(C)c(Cl)c2)N1 (stereo not shown) [RI_67] |  |  | 51.8 % of control | 42.6 % of control
COc1ccc(C2C(C(=O)OC3CCCCCC3)=C(C)NC3=C2C(=O)CC(C)(C)C3)c(OC)c1OC (stereo not shown) [ST024504, cycloheptyl 2,7,7-trimethyl-5-oxo-4-(2,3,4-trimethoxyphenyl)-1,4,6,7,8-pentahydroquinoline-3-carboxylate] | 0% | 0.415% |  | 
N#CC1=C(N)N2C(=O)C(Cc3ccc(Br)cc3)SC2=C(C#N)C1c1ccc(Br)cc1 (stereo not shown) [RI_97] |  |  | 74.9 % of control | 76.7 % of control
CCOC(=O)C1=C(C)NC2=C(C(=O)CC(C)(C)C2)C1c1cccc(OC)c1OC (stereo not shown) [ST013184, ethyl 4-(2,3-dimethoxyphenyl)-2,7,7-trimethyl-5-oxo-1,4,6,7,8-pentahydroquinoline-3-carboxylate] | 60.3% | 73.7% |  | 
COc1cc(/C=c2\sc3n(c2=O)C(N)=C(C#N)C(c2cc(OC)c(OC)c(OC)c2)C=3C#N)cc(OC)c1OC (stereo not shown) [ST025031, 5-amino-3-oxo-7-(3,4,5-trimethoxyphenyl)-2-[(3,4,5-trimethoxyphenyl)methylene]-4,7-dihydro-1,3-thiazolidino[3,2-a]pyridine-6,8-dicarbonitrile] |  |  | 77.59 % of control | 55.17 % of control
CCOC(=O)C1=C(C)NC2=C(C(=O)CCC2)C1c1cccnc1 (stereo not shown) [ST013070, ethyl 2-methyl-5-oxo-4-(3-pyridyl)-1,4,6,7,8-pentahydroquinoline-3-carboxylate] | 82.4% | 34% |  | 
COc1cc(Br)c(C2C(C#N)=C(C)NC3=C2C(=O)CC(c2ccc(Cl)cc2)C3)cc1OC (stereo not shown) [ST017045, 4-(2-bromo-4,5-dimethoxyphenyl)-7-(4-chlorophenyl)-2-methyl-5-oxo-1,4,6,7,8-pentahydroquinoline-3-carbonitrile] | 46% | 42.6% |  | 
CC1=C(C(=O)Nc2ccc(Cl)cc2)C(c2cccs2)C(C#N)=C(SCC(=O)Nc2ccc(C)c(Cl)c2)N1 (stereo not shown) [RI_60] |  |  | 71.1 % of control | 59.4 % of control
CC1=C(C(=O)OCC2CCCO2)C(c2cccc(Cl)c2)C2=C(CC(c3cccs3)CC2=O)N1 (stereo not shown) [ST051818, oxolan-2-ylmethyl 4-(3-chlorophenyl)-2-methyl-5-oxo-7-(2-thienyl)-1,4,6,7,8-pentahydroquinoline-3-carboxylate] | 72.9% | 37% |  | 
CC1=C(C(=O)OCc2ccccc2)C(c2cccc(Cl)c2Cl)C2=C(CC(C)(C)CC2=O)N1 (stereo not shown) [ST013230, phenylmethyl 4-(2,3-dichlorophenyl)-2,7,7-trimethyl-5-oxo-1,4,6,7,8-pentahydroquinoline-3-carboxylate] | 69.5% | 0% |  | 
CC1=C(C(=O)OCCOc2ccccc2)C(c2cccc(Cl)c2)C2=C(CCCC2=O)N1 (stereo not shown) [ST015091, 2-phenoxyethyl 4-(3-chlorophenyl)-2-methyl-5-oxo-1,4,6,7,8-pentahydroquinoline-3-carboxylate] | 75.8% | 62.4% |  | 
CCOC(=O)C1=C(C)NC2=C(C(=O)CCC2)C1c1ccc(OCc2ccc(C)cc2)c(OC)c1 (stereo not shown) [ST028606, ethyl 4-{3-methoxy-4-[(4-methylphenyl)methoxy]phenyl}-2-methyl-5-oxo-1,4,6,7,8-pentahydroquinoline-3-carboxylate] | 52% | 24.2% |  | 
CC1=C(C(=O)OCCc2ccccc2)C(c2ccc(C)o2)C2=C(CC(C)(C)CC2=O)N1 (stereo not shown) [ST052398, 2-phenylethyl 2,7,7-trimethyl-4-(5-methyl(2-furyl))-5-oxo-1,4,6,7,8-pentahydroquinoline-3-carboxylate] | 55.6% | 44.3% |  | 
CC1=C(C(=O)Nc2ccccc2)C(c2cccs2)C(C#N)=C(SCC(=O)Nc2ccc(Oc3ccccc3)cc2)N1 (stereo not shown) [RI_8] |  |  | 26.4 % of control | 46.1 % of control
COC(=O)C1=C(C)N(C)C(C)=C(C(=O)OC)C1c1cccc(Oc2ccccc2)c1 [ST024552, methyl 5-(methoxycarbonyl)-1,2,6-trimethyl-4-(3-phenoxyphenyl)-1,4-dihydropyridine-3-carboxylate] |  |  | 74.81 % of control | 57.26 % of control
COc1cccc(NC(=O)CSC2=C(C#N)C(c3ccccc3)C(C(=O)Nc3ccc(Cl)cc3)=C(C)N2)c1 (stereo not shown) [RI_55] |  |  | 40.3 % of control | 48.1 % of control
CCCOCCOC(=O)C1=C(C)NC2=C(C(=O)CC(C)(C)C2)C1c1ccccc1Cl (stereo not shown) [ST052454, 2-propoxyethyl 4-(2-chlorophenyl)-2,7,7-trimethyl-5-oxo-1,4,6,7,8-pentahydroquinoline-3-carboxylate] | 33.2% | 25.6% |  | 
COC(=O)C1=C(C)NC2=C(C(=O)CCC2)C1c1cccc(C(F)(F)F)c1 (stereo not shown) [ST052347, methyl 2-methyl-5-oxo-4-[3-(trifluoromethyl)phenyl]-1,4,6,7,8-pentahydroquinoline-3-carboxylate] | 64.3% | 57.2% |  | 
CCOCCOC(=O)C1=C(C)NC2=C(C(=O)CCC2)C1c1cc(OC)c(OC)c(OC)c1 (stereo not shown) [ST013345, 2-ethoxyethyl 2-methyl-5-oxo-4-(3,4,5-trimethoxyphenyl)-1,4,6,7,8-pentahydroquinoline-3-carboxylate] | 75.4% | 58.4% |  | 
CCCCCOC(=O)C1=C(C)NC2=C(C(=O)CCC2)C1c1cccc(O)c1 (stereo not shown) [ST017336, pentyl 4-(3-hydroxyphenyl)-2-methyl-5-oxo-1,4,6,7,8-pentahydroquinoline-3-carboxylate] | 72.7% | 62.9% |  | 

Source: US20100119599A1 (ARCHER PHARMACEUTICALS, INC., priority 2006, published 2010)
